{"source": "patent US20230255906A1", "about": "“Targeting Serpin B9 in Cancer” (The Brigham and Women`s Hospital, Inc., priority 2020, published 2023)", "data": [{"tested_on": "B16 melanoma cells", "assay": "Caspase-3 activity assay (EnzChek Caspase-3 Assay Kit), caspase-3 induction in tumor cells; note: test concentration or dose not given here", "format": "cell-based, mouse", "settings": "not given", "description": "(§1) The EnzChek® Caspase-3 Assay Kit was used to detect apoptosis by assaying for increases in caspase-3 activities. The basis for the assay was rhodamine 110 bis-(N-CBZ-L-aspartyl-L-glutamyl-L-valyl-L-aspartic acid amide) (Z-DEVD-R110). This substrate is a bisamide derivative of rhodamine 110 (R110) containing DEVD peptides covalently linked to each of R110's amino groups, thereby suppressing the dye's visible absorption and its fluorescence. Upon enzymatic cleavage, the nonfluorescent bisamide substrate is converted in a two-step process first to a fluorescent monoamide and then to an even more fluorescent R110.\n(§2) At least 1×10^6 cells of the lysate were used for each reaction. B16 cells were treated with compounds to induce apoptosis. A negative control was prepared by incubating cells in the absence of compounds. The cells were incubated with compounds for 24 hrs and washed in PBS. Each cell sample or control was resuspended in 50 μL of the 1×cell lysis buffer. Cells were lysed by incubating on ice for 30 minutes, and the lysed cells were centrifuged to pellet the cellular debris. 50 μL of the supernatant was transferred from each sample to individual microplate wells. 50 μL of the 1× cell lysis buffer was used as a no-enzyme control to determine the background fluorescence of the substrate. 50 μL of the 2×substrate working solution was added to each sample and control. The microplate was covered, and the samples were incubated at room temperature for approximately 30 minutes. The fluorescence was measured by a fluorescence microplate reader (excitation/emission ˜496/520 nm) using excitation and emission filters.\n(§3) The ability of this small molecule inhibitor to inhibit intracellular Sb9 was then evaluated. As a marker for cell penetration, the induction of caspase-3 activity in B16 melanoma cells as a surrogate marker for increased GrB activity was measured.\n(§4) The induction of caspase-3 activity in B16 melanoma cells as a surrogate marker for increased GrB activity was also measured for other small molecules (compounds of Formulas (V) and (VI) as described herein).", "values": [{"smiles": "COc1cccc(-c2nc3ccc(C(=O)NCc4cnc(C)cn4)cc3o2)c1", "note": "[2-(3-methoxyphenyl)-N-[(5-methylpyrazin-2-yl)methyl]-1,3-benzoxazole-6-carboxamide]", "Ratio of caspase-3 activity to Formula (III)": 0.1387}, {"smiles": "COc1cccc(-c2nc3ccc(C(=O)N(C)CCC4CCCCO4)cc3o2)c1", "note": "(stereo not shown) [2-(3-methoxyphenyl)-N-methyl-N-[2-(tetrahydro-2H-pyran-2-yl)ethyl]-1,3-benzoxazole-6-carboxamide]", "Ratio of caspase-3 activity to Formula (III)": 0.1405}, {"smiles": "COc1cccc(-c2nc3ccc(C(=O)N(C)Cc4nnc(C)o4)cc3o2)c1", "note": "[2-(3-methoxyphenyl)-N-methyl-N-[(5-methyl-1,3,4-oxadiazol-2-yl)methyl]-1,3-benzoxazole-6-carboxamide]", "Ratio of caspase-3 activity to Formula (III)": 0.7091}, {"smiles": "COc1cccc(-c2nc3ccc(C(=O)N(C)Cc4cc(C)on4)cc3o2)c1", "note": "[2-(3-methoxyphenyl)-N-methyl-N-[(5-methylisoxazol-3-yl)methyl]-1,3-benzoxazole-6-carboxamide]", "Ratio of caspase-3 activity to Formula (III)": 0.2402}, {"smiles": "CCCc1cc(CN(C)C(=O)c2ccc3nc(-c4cccc(OC)c4)oc3c2)n[nH]1", "note": "[2-(3-methoxyphenyl)-N-methyl-N-[(5-propyl-1H-pyrazol-3-yl)methyl]-1,3-benzoxazole-6-carboxamide]", "Ratio of caspase-3 activity to Formula (III)": 0.1531}, {"smiles": "COc1cccc(-c2nc3ccc(C(=O)N4CCN(CCC(N)=O)CC4)cc3o2)c1", "note": "[3-(4-{[2-(3-methoxyphenyl)-1,3-benzoxazol-6-yl]carbonyl}-1-piperazinyl)propanamide]", "Ratio of caspase-3 activity to Formula (III)": 1.077}, {"smiles": "CC(C)NC(=O)CCNC(=O)c1ccc2nc(-c3ccccc3)oc2c1", "note": "[3-[(2-phenyl-1,3-benzoxazol-6-yl)formamido]-N-(propan-2-yl)propanamide]", "Ratio of caspase-3 activity to Formula (III)": 1.371}, {"smiles": "O=C1CN(C(=O)c2ccc3oc(-c4ccc(C(F)(F)F)cc4)nc3c2)CCN1", "note": "[4-({2-[4-(trifluoromethyl)phenyl]-1,3-benzoxazol-5-yl}carbonyl)-2-piperazinone]", "Ratio of caspase-3 activity to Formula (III)": 1.698}]}, {"tested_on": "B16 melanoma cells", "assay": "Caspase-3 activity assay (EnzChek Caspase-3 Assay Kit), caspase-3 induction in tumor cells", "format": "cell-based, mouse", "settings": "relative to compound of Formula (III)", "description": "as §1, §2, §3, §4", "units": {"Caspase-3 induction, Normalized to Formula (III) (%)": "%"}, "values": [{"smiles": "COCCCNC(=O)c1cccc2oc(N(C)C)nc12", "note": "[2-(dimethylamino)-N-(3-methoxypropyl)-1,3-benzoxazole-4-carboxamide]", "Caspase-3 induction, Normalized to Formula (III) (%)": "−31.049"}, {"smiles": "COCCCNC(=O)c1cccc2nc(N(C)C)oc12", "note": "[2-(dimethylamino)-N-(3-methoxypropyl)-1,3-benzoxazole-7-carboxamide]", "Caspase-3 induction, Normalized to Formula (III) (%)": "−39.581"}, {"smiles": "CCN(C)C(=O)c1cccc2oc(N(C)C)nc12", "note": "[2-(dimethylamino)-N-ethyl-N-methyl-1,3-benzoxazole-4-carboxamide]", "Caspase-3 induction, Normalized to Formula (III) (%)": "−25.6782"}, {"smiles": "CCN(C)C(=O)c1cccc2nc(N(C)C)oc12", "note": "[2-(dimethylamino)-N-ethyl-N-methyl-1,3-benzoxazole-7-carboxamide]", "Caspase-3 induction, Normalized to Formula (III) (%)": "−30.9946"}, {"smiles": "COc1cc(Br)c(C(=O)NCC(C)C)cc1OC", "note": "[2-bromo-4,5-dimethoxy-N-(2-methylpropyl)benzamide]", "Caspase-3 induction, Normalized to Formula (III) (%)": "−58.9646"}, {"smiles": "COCCCNC(=O)c1cc(OC)c(OC)cc1Br", "note": "[2-bromo-4,5-dimethoxy-N-(3-methoxypropyl)benzamide]", "Caspase-3 induction, Normalized to Formula (III) (%)": "−85.9622"}, {"smiles": "COc1cc(Br)c(C(=O)NCC2CCOCC2)cc1OC", "note": "[2-bromo-4,5-dimethoxy-N-[(oxan-4-yl)methyl]benzamide]", "Caspase-3 induction, Normalized to Formula (III) (%)": "−43.6422"}, {"smiles": "COc1cc(Br)c(C(=O)NCC2CCOC2)cc1OC", "note": "(stereo not shown) [2-bromo-4,5-dimethoxy-N-[(oxolan-3-yl)methyl]benzamide]", "Caspase-3 induction, Normalized to Formula (III) (%)": "−2.142"}, {"smiles": "COc1cc(Br)c(C(=O)NCCN(C)C)cc1OC", "note": "[2-bromo-N-[2-(dimethylamino)ethyl]-4,5-dimethoxybenzamide]", "Caspase-3 induction, Normalized to Formula (III) (%)": "−70.1327"}, {"smiles": "COc1cc(Br)c(C(=O)NC2CCCC2)cc1OC", "note": "[2-bromo-N-cyclopentyl-4,5-dimethoxybenzamide]", "Caspase-3 induction, Normalized to Formula (III) (%)": "−49.8913"}, {"smiles": "CCN(C)C(=O)c1cc(OC)c(OC)cc1Br", "note": "[2-bromo-N-ethyl-4,5-dimethoxy-N-methylbenzamide]", "Caspase-3 induction, Normalized to Formula (III) (%)": "−74.0106"}, {"smiles": "O=C(c1ccc2nc(C3CCCCC3)oc2c1)N1CCCC1", "note": "[2-cyclohexyl-6-(pyrrolidine-1-carbonyl)-1,3-benzoxazole]", "Caspase-3 induction, Normalized to Formula (III) (%)": "−29.7019"}, {"smiles": "COCCCNC(=O)c1ccc2nc(C3CCCCC3)oc2c1", "note": "[2-cyclohexyl-N-(3-methoxypropyl)-1,3-benzoxazole-6-carboxamide]", "Caspase-3 induction, Normalized to Formula (III) (%)": "−42.1813"}, {"smiles": "O=C(NC1CCCC1)c1ccc2nc(C3CCCCC3)oc2c1", "note": "[2-cyclohexyl-N-cyclopentyl-1,3-benzoxazole-6-carboxamide]", "Caspase-3 induction, Normalized to Formula (III) (%)": 26.2507}, {"smiles": "CCN(C)C(=O)c1ccc2nc(C3CCCCC3)oc2c1", "note": "[2-cyclohexyl-N-ethyl-N-methyl-1,3-benzoxazole-6-carboxamide]", "Caspase-3 induction, Normalized to Formula (III) (%)": 1.1915}, {"smiles": "O=C(c1ccc2nc(C3CC3)oc2c1)N1CCCC1", "note": "[2-cyclopropyl-6-(pyrrolidine-1-carbonyl)-1,3-benzoxazole]", "Caspase-3 induction, Normalized to Formula (III) (%)": "−27.4144"}, {"smiles": "COCCCNC(=O)c1ccc2nc(C3CC3)oc2c1", "note": "[2-cyclopropyl-N-(3-methoxypropyl)-1,3-benzoxazole-6-carboxamide]", "Caspase-3 induction, Normalized to Formula (III) (%)": "−4.759"}, {"smiles": "CCN(C)C(=O)c1ccc2nc(C3CC3)oc2c1", "note": "[2-cyclopropyl-N-ethyl-N-methyl-1,3-benzoxazole-6-carboxamide]", "Caspase-3 induction, Normalized to Formula (III) (%)": 33.9690}, {"smiles": "CCOc1ccc(C(=O)N2CCCC2)cc1O", "note": "[2-ethoxy-5-(pyrrolidine-1-carbonyl)phenol]", "Caspase-3 induction, Normalized to Formula (III) (%)": "−21.427"}, {"smiles": "COc1cc(C(=O)NCC2CCOCC2)ccc1OCCC(C)C", "note": "[3-methoxy-4-(3-methylbutoxy)-N-[(oxan-4-yl)methyl]benzamide]", "Caspase-3 induction, Normalized to Formula (III) (%)": "−31.8318"}, {"smiles": "COc1cc(C(=O)NCC2CCOCC2)ccc1OC(C)C", "note": "[3-methoxy-N-[(oxan-4-yl)methyl]-4-(propan-2-yloxy)benzamide]", "Caspase-3 induction, Normalized to Formula (III) (%)": "−66.2788"}, {"smiles": "COc1cc(C(=O)NCC2CCOC2)ccc1OC(C)C", "note": "(stereo not shown) [3-methoxy-N-[(oxolan-3-yl)methyl]-4-(propan-2-yloxy)benzamide]", "Caspase-3 induction, Normalized to Formula (III) (%)": "−2.673"}, {"smiles": "Cc1cc(O)c(O)cc1C(=O)NCC(C)C", "note": "[4,5-dihydroxy-2-methyl-N-(2-methylpropyl)benzamide]", "Caspase-3 induction, Normalized to Formula (III) (%)": "−27.9096"}, {"smiles": "COCCCNC(=O)c1cc(O)c(O)cc1C", "note": "[4,5-dihydroxy-N-(3-methoxypropyl)-2-methylbenzamide]", "Caspase-3 induction, Normalized to Formula (III) (%)": "−55.7377"}, {"smiles": "CCOc1ccc(C(=O)NCC(C)C)cc1O", "note": "[4-ethoxy-3-hydroxy-N-(2-methylpropyl)benzamide]", "Caspase-3 induction, Normalized to Formula (III) (%)": "−3.559"}, {"smiles": "CCOc1ccc(C(=O)NCCCOC)cc1O", "note": "[4-ethoxy-3-hydroxy-N-(3-methoxypropyl)benzamide]", "Caspase-3 induction, Normalized to Formula (III) (%)": "−35.6816"}, {"smiles": "CCOc1ccc(C(=O)NCC2CCOCC2)cc1O", "note": "[4-ethoxy-3-hydroxy-N-[(oxan-4-yl)methyl]benzamide]", "Caspase-3 induction, Normalized to Formula (III) (%)": "−30.8469"}, {"smiles": "CCOc1ccc(C(=O)NCC2CCOC2)cc1O", "note": "(stereo not shown) [4-ethoxy-3-hydroxy-N-[(oxolan-3-yl)methyl]benzamide]", "Caspase-3 induction, Normalized to Formula (III) (%)": "−24.9053"}, {"smiles": "CCOc1ccc(C(=O)N(C)CC)cc1O", "note": "[4-ethoxy-N-ethyl-3-hydroxy-N-methylbenzamide]", "Caspase-3 induction, Normalized to Formula (III) (%)": "−69.889"}]}]}
